According to patent US8518947B2, “(Heterocycle/tetrahydropyridine)-(piperazinyl)-1-alcanone and (heterocycle/dihydropyrrolidine)-(piperazinyl)-1-alcanone derivatives, and use thereof as p75 inhibitors” (Sanofi, priority 2009, dated 2013):
Where a name gives a salt, the structure may show the parent alone.

| SMILES | melting point |
| --- | --- |
| C[C@@H]1CN(c2ccc3ccccc3n2)C[C@H](C)N1CC(=O)N1CC=C(c2c[nH]c3ccccc23)CC1 [Compound 110, 2-((2S,6R)-2,6-dimethyl-4-quinolin-2-yl-piperazin-1-yl)-1-[4-(1H-indol-3-yl)-3,6-dihydro-2H-pyridin-1-yl]ethanone] | 198 to 200 °C |
| O=C(CN1CCN(c2ccc(C(F)(F)F)cn2)CC1)N1CC=C(c2c[nH]c3ccccc23)CC1 [Compound 109, 1-[4-(1H-indol-3-yl)-3,6-dihydro-2H-pyridin-1-yl]-2-[4-(5-trifluoromethylpyridin-2-yl)piperazin-1-yl]ethanone] | 220 to 222 °C |
| O=C(CN1CCN(c2ccc(C(F)(F)F)cn2)CC1)N1CC=C(c2ccc3sccc3c2)CC1 [Compound 46, 1-(4-benzo[b]thiophen-5-yl-3,6-dihydro-2H-pyridin-1-yl)-2-[4-(5-trifluoromethylpyridin-2-yl)piperazin-1-yl)ethanone] | 170 to 171 °C |
| O=C(CN1CCN(c2ccc(C(F)(F)F)cn2)C(=O)C1)N1CC=C(c2ccc3sccc3c2)CC1 [Compound 43, 4-[2-(4-benzo[b]thiophen-5-yl-3,6-dihydro-2H-pyridin-1-yl)-2-oxoethyl]-1-(5-trifluoromethylpyridin-2-yl)piperazin-2-one] | 169 to 170 °C |
| C[C@@H]1CN(c2ccc(C(F)(F)F)nc2)C[C@H](C)N1CC(=O)N1CC=C(c2ccc3c(c2)OCCO3)CC1 [Compound 45, 1-[4-(2,3-dihydrobenzo[1,4]dioxin-6-yl)-3,6-dihydro-2H-pyridin-1-yl]-2-[(2S,6R)-2,6-dimethyl-4-(6-trifluoromethylpyridin-3-yl)piperazin-1-yl]ethanone] | 200 to 201 °C |
| Cc1cc2cc(C3=CCN(C(=O)CN4CCN(c5ccnc6cc(Cl)ccc56)CC4)CC3)ccc2s1 [Compound 117, 2-[4-(7-chloroquinolin-4-yl)piperazin-1-yl]-1-[4-(2-methylbenzo[b]thiophen-5-yl)-3,6-dihydro-2H-pyridin-1-yl]ethanone] | 90 to 93 °C |
| COC(=O)c1ccc(N2C[C@@H](C)N(CC(=O)N3CC=C(c4cccc5ccsc45)CC3)[C@@H](C)C2)nc1 (as salt: HCl) [Compound 58, Methyl 6-{(3S,5R)-4-[2-(4-benzo[b]thiophen-7-yl-3,6-dihydro-2H-pyridin-1-yl)-2-oxoethyl]-3,5-dimethylpiperazin-1-yl}nicotinate] | 208 to 210 °C |
| C[C@@H]1CN(c2ccc(C(F)(F)F)cn2)C[C@H](C)N1CC(=O)N1CC=C(c2c[nH]c3ccccc23)CC1 [Compound 97, 2-[(2S,6R)-2,6-dimethyl-4-(5-trifluoromethylpyridin-2-yl)piperazin-1-yl]-1-[4-(1H-indol-3-yl)-3,6-dihydro-2H-pyridin-1-yl]ethanone] | 198 to 200 °C |
| O=C(CN1CCN(c2ccc(C(F)(F)F)cn2)C(=O)C1)N1CC=C(c2ccc3occc3c2)CC1 [Compound 60, 4-[2-(4-benzofuran-5-yl-3,6-dihydro-2H-pyridin-1-yl)-2-oxoethyl]-1-(5-trifluoromethylpyridin-2-yl)piperazin-2-one] | 154 to 155 °C |
| Cc1cc2cc(C3=CCN(C(=O)CN4[C@H](C)CN(c5cncnc5)C[C@@H]4C)CC3)ccc2s1 [Compound 40, 2-((2S,6R)-2,6-dimethyl-4-pyrimidin-5-ylpiperazin-1-yl)-1-[4-(2-methylbenzo[b]thiophen-5-yl)-3,6-dihydro-2H-pyridin-1-yl]ethanone] | 191 to 192 °C |
| COC(=O)c1ccc(N2C3CCC2CN(CC(=O)N2CC=C(c4ccc5c(c4)OCCO5)CC2)C3)nc1 | 172 to 174 °C |
| O=C(CN1CCN(c2ccc(C(F)(F)F)cn2)CC1)N1CC=C(c2ccc3c(c2)OCCO3)CC1 [Compound 21, 1-[4-(2,3-dihydrobenzo[1,4]dioxin-6-yl)-3,6-dihydro-2H-pyridin-1-yl]-2-[4-(5-trifluoromethylpyridin-2-yl)piperazin-1-yl]ethanone] | 142 to 143 °C |
| C[C@@H]1CN(c2ccc3ccccc3n2)C[C@H](C)N1CC(=O)N1CC=C(c2cccc3ccsc23)CC1 (as salt: HCl) [Compound 19, 1-(4-benzo[b]thiophen-7-yl-3,6-dihydro-2H-pyridin-1-yl)-2-((2S,6R)-2,6-dimethyl-4-quinolin-2-ylpiperazin-1-yl)ethanone] | 192 to 193 °C |
| O=C(CN1CCN(c2ccc(C(F)(F)F)cn2)C(=O)C1)N1CC=C(c2cccc3ccoc23)CC1 [Compound 32, 4-[2-(4-benzofuran-7-yl-3,6-dihydro-2H-pyridin-1-yl)-2-oxoethyl]-1-(5-trifluoromethylpyridin-2-yl)piperazin-2-one] | 151 to 152 °C |
| Cc1cc2cc(C3=CCN(C(=O)CN4CC5CCC(C4)N5c4ccc(C(=O)OC5CCC5)cn4)CC3)ccc2s1 | 153 to 154 °C |
| O=C(CN1CCN(c2ccc3ccccc3n2)CC1)N1CC=C(c2cccc3ccsc23)CC1 [Compound 105, 1-(4-benzo[b]thiophen-7-yl-3,6-dihydro-2H-pyridin-1-yl)-2-(4-quinolin-2-ylpiperazin-1-yl)ethanone] | 177 to 178 °C |
| C[C@@H]1CN(c2ccc(C(F)(F)F)cn2)C[C@H](C)N1CC(=O)N1CCC=C(c2cccc3ccoc23)C1 [Compound 63, 1-(5-benzofuran-7-yl-3,6-dihydro-2H-pyridin-1-yl)-2-[(2S,6R)-2,6-dimethyl-4-(5-trifluoromethylpyridin-2-yl)piperazin-1-yl]ethanone] | 129 to 130 °C |
| C[C@@H]1CN(c2ncc(F)cn2)C[C@H](C)N1CC(=O)N1CC=C(c2ccc3c(c2)OCCO3)CC1 (as salt: oxalate) [Compound 44, 1-[4-(2,3-dihydrobenzo[1,4]dioxin-6-yl)-3,6-dihydro-2H-pyridin-1-yl]-2-[(2S,6R)-4-(5-fluoropyrimidin-2-yl)-2,6-dimethylpiperazin-1-yl]ethanone] | 90 to 91 °C |
| O=C(CN1CCCN(c2cccnc2)CC1)N1CC=C(c2cccc3ccoc23)CC1 (as salt: oxalate) [Compound 78, 1-(4-benzofuran-7-yl-3,6-dihydro-2H-pyridin-1-yl)-2-(4-pyridin-3-yl-[1,4]diazepan-1-yl)ethanone] | 100 to 101 °C |
| O=C(CN1CCN(c2ccnc3cc(Cl)ccc23)CC1)N1CC=C(c2cccc3ccoc23)CC1 (as salt: oxalate) [Compound 99, 1-(4-benzofuran-7-yl-3,6-dihydro-2H-pyridin-1-yl)-2-[4-(7-chloroquinolin-4-yl)piperazin-1-yl]ethanone] | 99 to 100 °C |
| C[C@@H]1CN(c2ccc(C(F)(F)F)nc2)C[C@H](C)N1CC(=O)N1CC=C(c2ccc3sccc3c2)CC1 [Compound 47, 1-(4-benzo[b]thiophen-5-yl-3,6-dihydro-2H-pyridin-1-yl)-2-[(2S,6R)-2,6-dimethyl-4-(6-trifluoromethylpyridin-3-yl)piperazin-1-yl)ethanone] | 136 to 137 °C |

The next lines start with the values.

| melting point | SMILES |
| --- | --- |
| 163 to 165 °C | O=C(CN1CC2CCC(C1)N2c1ncc(F)cn1)N1CC=C(c2ccc3c(c2)OCCO3)CC1 |
| 188 to 189 °C | O=C(O)c1ccc(N2C3CCC2CN(CC(=O)N2CC=C(c4cccc5ccoc45)C2)C3)nc1 |
| 157 to 158 °C | O=C(CN1CC2CCC(C1)N2c1ncc(F)cn1)N1CC=C(c2cccc3ccoc23)CC1 |
| 174 to 175 °C | C[C@@H]1CN(c2ncc(F)cn2)C[C@H](C)N1CC(=O)N1CC=C(c2cccc3ccoc23)CC1 (as salt: HCl) [Compound 36, 1-(4-benzofuran-7-yl-3,6-dihydro-2H-pyridin-1-yl)-2-[(2S,6R)-4-(5-fluoropyrimidin-2-yl)-2,6-dimethylpiperazin-1-yl]ethanone] |
| 121 to 123 °C | O=C(CN1CC2CCC(C1)N2c1cccnc1)N1CC=C(c2cccc3ccoc23)CC1 |
| 169 to 170 °C | COC(=O)c1ccc(N2C3CCC2CN(CC(=O)N2CC=C(c4cccc5ccoc45)C2)C3)nc1 |
| 225 to 226 °C | C[C@@H]1CN(c2ccc(C(F)(F)F)nc2)C[C@H](C)N1CC(=O)N1CC=C(c2cccc3ccsc23)CC1 (as salt: HCl) [Compound 54, 1-(4-benzo[b]thiophen-7-yl-3,6-dihydro-2H-pyridin-1-yl)-2-[(2S,6R)-2,6-dimethyl-4-(6-trifluoromethylpyridin-3-yl)piperazin-1-yl)ethanone] |
| 179 to 180 °C | COC(=O)c1ccc(N2C3CCC2CN(CC(=O)N2CC=C(c4ccc5sc(C)cc5c4)CC2)C3)nc1 |
| 120 to 121 °C | O=C(CN1CCN(c2ccc(C(F)(F)F)cn2)CC1)N1CC=C(c2cccc3ccsc23)CC1 [Compound 50, 1-(4-benzo[b]thiophen-7-yl-3,6-dihydro-2H-pyridin-1-yl)-2-[4-(5-trifluoromethylpyridin-2-yl)piperazin-1-yl]ethanone] |
| 184 to 185 °C | N#Cc1ccc(N2C3CCC2CN(CC(=O)N2CC=C(c4cccc5ccoc45)CC2)C3)nc1 |
| 143 to 146 °C | O=C(CN1CCN(c2ccc(C(F)(F)F)cn2)C(=O)C1)N1CC=C(c2cccc3ccsc23)CC1 [Compound 31, 4-[2-(4-benzo[b]thiophen-7-yl-3,6-dihydro-2H-pyridin-1-yl)-2-oxoethyl]-1-(5-trifluoromethylpyridin-2-yl)piperazin-2-one] |
| 178 to 180 °C | Cn1nnnc1-c1ccc(N2C3CCC2CN(CC(=O)N2CC=C(c4cccc5ccoc45)CC2)C3)nc1 |
| 230 to 232 °C | O=C(CN1CC2CCC(C1)N2c1ccc(-c2noc(=O)[nH]2)cn1)N1CC=C(c2cccc3ccoc23)CC1 |
| 153 to 154 °C | COC(=O)c1ccc(N2C3CCC2CN(CC(=O)N2CC=C(c4cccc5ccsc45)CC2)C3)nc1 |
| 112 to 113 °C | O=C(CN1CC2CCC(C1)N2c1ncc(F)cn1)N1CC=C(c2cccc3ccsc23)CC1 |
| 195 to 196 °C | C[C@@H]1CN(c2cncnc2)C[C@H](C)N1CC(=O)N1CC=C(c2cccc3ccsc23)CC1 [Compound 55, 1-(4-benzo[b]thiophen-7-yl-3,6-dihydro-2H-pyridin-1-yl)-2-((2S,6R)-2,6-dimethyl-4-pyrimidin-5-ylpiperazin-1-yl)ethanone] |
| 167 to 168 °C | O=C(CN1CC2CCC(C1)N2c1ncc(F)cn1)N1CC=C(c2nccc3sccc23)CC1 |
